Patent US12077503B2, “Substituted cyclic amides and their use as herbicides” (FMC CORPORATION, priority 2015, dated 2024)
Each block holds one molecule with its values, some of them ahead of it.

Columns and labels:
corn (Zea mays) = experiment: Test C preemergence; assay type: in vivo; details: for Plant response rating, Corn: scale 0 to 100, 0 no effect, 100 complete control
Method in brief: (§1)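 Assessment: visual, 13–15 d after treatment, 0 (no effect) to 100 (complete control) relative to controls. Treatment: preemergence to seeds in loam-sand soil, or postemergence to 1- to 4-leaf plants in peat-based medium. Formulation: non-phytotoxic solvent mixture with surfactant.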

[1] = system: johnsongrass (Sorghum halepense); experiment: Test C preemergence; assay type: in vivo; details: for Plant response rating, Johnsongrass: scale 0 to 100, 0 no effect, 100 complete control
Method in brief: as §1

[2] = system: wheat (winter wheat, Triticum aestivum); experiment: Test C preemergence; assay type: in vivo; details: for Plant response rating, Wheat: scale 0 to 100, 0 no effect, 100 complete control
Method in brief: as §1

[3] = system: lambsquarters (Chenopodium album); experiment: Test C preemergence; assay type: in vivo; details: for Plant response rating, Lambsquarters: scale 0 to 100, 0 no effect, 100 complete control
Method in brief: as §1

[4] = system: ryegrass, Italian (Italian ryegrass, Lolium multiflorum); experiment: Test C preemergence; assay type: in vivo; details: for Plant response rating, Ryegrass, Italian: scale 0 to 100, 0 no effect, 100 complete control
Method in brief: as §1

[5] = system: blackgrass (Alopecurus myosuroides); experiment: Test C preemergence; assay type: in vivo; details: for Plant response rating, Blackgrass: scale 0 to 100, 0 no effect, 100 complete control
Method in brief: as §1

[6] = system: velvetleaf (Abutilon theophrasti); experiment: Test C preemergence; assay type: in vivo; details: for Plant response rating, Velvetleaf: scale 0 to 100, 0 no effect, 100 complete control
Method in brief: as §1

[7] = system: nutsedge, yellow (yellow nutsedge, Cyperus esculentus); experiment: Test C preemergence; assay type: in vivo; details: for Plant response rating, Nutsedge, Yellow: scale 0 to 100, 0 no effect, 100 complete control
Method in brief: as §1

[8] = system: Galium (catchweed bedstraw, Galium aparine); experiment: Test C preemergence; assay type: in vivo; details: for Plant response rating, Galium: scale 0 to 100, 0 no effect, 100 complete control
Method in brief: as §1

[9] = system: ragweed (common ragweed, Ambrosia elatior); experiment: Test C preemergence; assay type: in vivo; details: for Plant response rating, Ragweed: scale 0 to 100, 0 no effect, 100 complete control
Method in brief: as §1

[10] = system: crabgrass, large (large crabgrass, Digitaria sanguinalis); experiment: Test C preemergence; assay type: in vivo; details: for Plant response rating, Crabgrass, Large: scale 0 to 100, 0 no effect, 100 complete control
Method in brief: as §1

[11] = system: waterhemp (common waterhemp, Amaranthus rudis); experiment: Test C preemergence; assay type: in vivo; details: for Plant response rating, Waterhemp: scale 0 to 100, 0 no effect, 100 complete control
Method in brief: as §1

[12] = system: foxtail, giant (giant foxtail, Setaria faberii); experiment: Test C preemergence; assay type: in vivo; details: for Plant response rating, Foxtail, Giant: scale 0 to 100, 0 no effect, 100 complete control
Method in brief: as §1

soybean (Glycine max) = experiment: Test C preemergence; assay type: in vivo; details: for Plant response rating, Soybean: scale 0 to 100, 0 no effect, 100 complete control
Method in brief: as §1

[13] = system: barnyardgrass (Echinochloa crus-galli); experiment: Test C preemergence; assay type: in vivo; details: for Plant response rating, Barnyardgrass: scale 0 to 100, 0 no effect, 100 complete control
Method in brief: as §1

[14] = system: morningglory (Ipomoea coccinea); experiment: Test C preemergence; assay type: in vivo; details: for Plant response rating, Morningglory: scale 0 to 100, 0 no effect, 100 complete control
Method in brief: as §1

[15] = system: pigweed (Amaranthus retroflexus); experiment: Test C preemergence; assay type: in vivo; details: for Plant response rating, Pigweed: scale 0 to 100, 0 no effect, 100 complete control
Method in brief: as §1

[16] = system: oilseed rape (Brassica napus); experiment: Test C preemergence; assay type: in vivo; details: for Plant response rating, Oilseed Rape: scale 0 to 100, 0 no effect, 100 complete control
Method in brief: as §1

[17] = system: barnyardgrass (Echinochloa crus-galli); experiment: Test C flooded paddy test; assay type: in vivo; details: Flood, 0 is no effect, 100 is complete control
Method in brief: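 Compound was added directly to paddy water held 3 cm above the soil, with plants at the 2-leaf stage. Injury was scored visually versus untreated controls after 13–15 d greenhouse growth, using a 0–100 scale where 100 means complete control.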

[18] = 31 g ai/ha, 0 is no effect, 100 is complete control

SMILES: C=C(C)c1cccc([C@H]2CN(C)C(=O)[C@@H]2C(=O)Nc2cccc(F)c2C)c1 [Compound 1086]
- melting point: 89 to 93 °C

SMILES: CC(C)=CC1CNC(=O)C1C(=O)Nc1cccc(F)c1F (centres unmarked) [Compound 1012]
- melting point: 162 to 166 °C

SMILES: COc1cccc([C@H]2CN(C)C(=O)[C@@H]2C(=O)Nc2cccc(F)c2F)c1F [Compound 1072]
- melting point: 163 to 167 °C

SMILES: CN1C[C@H](c2ccc(F)c(Oc3ccccc3)c2)[C@@H](C(=O)Nc2ccccc2S(C)(=O)=O)C1=O [Compound 1143]
- melting point: 141 to 145 °C

SMILES: CN1CC(c2ccc(F)c(C(F)(F)F)c2)C(C(=O)Nc2ccccc2S(C)(=O)=O)C1=O (centres unmarked) [Compound 612]
- Plant response rating (scale of 0 to 100), Corn (corn (Zea mays); [18]): 40
- Plant response rating, Corn (corn (Zea mays); 62 g ai/ha): 30
- Plant response rating, Corn (corn (Zea mays); 125 g ai/ha): 65
- Plant response rating, Corn (corn (Zea mays); 250 g ai/ha): 70
- Plant response rating (scale of 0 to 100), Johnsongrass [1, 18]: 40
- Plant response rating, Johnsongrass ([1]; 62 g ai/ha): 60
- Plant response rating, Johnsongrass ([1]; 125 g ai/ha): 85
- Plant response rating, Johnsongrass ([1]; 250 g ai/ha): 90
- Plant response rating (scale of 0 to 100), Wheat [2, 18]: 20
- Plant response rating, Wheat ([2]; 62 g ai/ha): 55
- Plant response rating, Wheat ([2]; 125 g ai/ha): 25
- Plant response rating, Wheat ([2]; 250 g ai/ha): 90
- Plant response rating (scale of 0 to 100), Lambsquarters [3, 18]: 45
- Plant response rating, Lambsquarters ([3]; 62 g ai/ha): 45
- Plant response rating, Lambsquarters ([3]; 125 g ai/ha): 40
- Plant response rating, Lambsquarters ([3]; 250 g ai/ha): 70
- Plant response rating (scale of 0 to 100), Ryegrass, Italian [4, 18]: 20
- Plant response rating, Ryegrass, Italian ([4]; 62 g ai/ha): 40
- Plant response rating, Ryegrass, Italian ([4]; 125 g ai/ha): 50
- Plant response rating, Ryegrass, Italian ([4]; 250 g ai/ha): 80
- Plant response rating (scale of 0 to 100), Blackgrass [5, 18]: 70
- Plant response rating, Blackgrass ([5]; 62 g ai/ha): 90
- Plant response rating, Blackgrass ([5]; 125 g ai/ha): 90
- Plant response rating, Blackgrass ([5]; 250 g ai/ha): 95
- Plant response rating (scale of 0 to 100), Velvetleaf [6, 18]: 0
- Plant response rating, Velvetleaf ([6]; 62 g ai/ha): 10
- Plant response rating, Velvetleaf ([6]; 125 g ai/ha): 30
- Plant response rating, Velvetleaf ([6]; 250 g ai/ha): 60
- Plant response rating (scale of 0 to 100), Nutsedge, Yellow [7, 18]: 0
- Plant response rating, Nutsedge, Yellow ([7]; 62 g ai/ha): 0
- Plant response rating, Nutsedge, Yellow ([7]; 125 g ai/ha): 25
- Plant response rating, Nutsedge, Yellow ([7]; 250 g ai/ha): 35
- Plant response rating (scale of 0 to 100), Galium [8, 18]: 80
- Plant response rating, Galium ([8]; 62 g ai/ha): 0
- Plant response rating, Galium ([8]; 125 g ai/ha): 90
- Plant response rating, Galium ([8]; 250 g ai/ha): 90
- Plant response rating (scale of 0 to 100), Ragweed [9, 18]: 10
- Plant response rating, Ragweed ([9]; 62 g ai/ha): 10
- Plant response rating, Ragweed ([9]; 125 g ai/ha): 55
- Plant response rating, Ragweed ([9]; 250 g ai/ha): 65
- Plant response rating (scale of 0 to 100), Crabgrass, Large [10, 18]: 98
- Plant response rating, Crabgrass, Large ([10]; 62 g ai/ha): 95
- Plant response rating, Crabgrass, Large ([10]; 125 g ai/ha): 98
- Plant response rating, Crabgrass, Large ([10]; 250 g ai/ha): 100
- Plant response rating (scale of 0 to 100), Waterhemp [11, 18]: 75
- Plant response rating, Waterhemp ([11]; 62 g ai/ha): 85
- Plant response rating, Waterhemp ([11]; 125 g ai/ha): 90
- Plant response rating, Waterhemp ([11]; 250 g ai/ha): 95
- Plant response rating (scale of 0 to 100), Foxtail, Giant [12, 18]: 90
- Plant response rating, Foxtail, Giant ([12]; 62 g ai/ha): 90
- Plant response rating, Foxtail, Giant ([12]; 125 g ai/ha): 95
- Plant response rating, Foxtail, Giant ([12]; 250 g ai/ha): 95
- Plant response rating (scale of 0 to 100), Soybean (soybean (Glycine max); [18]): 0
- Plant response rating, Soybean (soybean (Glycine max); 62 g ai/ha): 0
- Plant response rating, Soybean (soybean (Glycine max); 125 g ai/ha): 10
- Plant response rating, Soybean (soybean (Glycine max); 250 g ai/ha): 0
- Plant response rating (scale of 0 to 100), Barnyardgrass [13, 18]: 85
- Plant response rating, Barnyardgrass ([13]; 62 g ai/ha): 95
- Plant response rating, Barnyardgrass ([13]; 125 g ai/ha): 95
- Plant response rating, Barnyardgrass ([13]; 250 g ai/ha): 98
- Plant response rating (scale of 0 to 100), Morningglory [14, 18]: 0
- Plant response rating, Morningglory ([14]; 62 g ai/ha): 0
- Plant response rating, Morningglory ([14]; 125 g ai/ha): 25
- Plant response rating, Morningglory ([14]; 250 g ai/ha): 55
- Plant response rating (scale of 0 to 100), Pigweed [15, 18]: 60
- Plant response rating, Pigweed ([15]; 62 g ai/ha): 80
- Plant response rating, Pigweed ([15]; 125 g ai/ha): 90
- Plant response rating, Pigweed ([15]; 250 g ai/ha): 90
- Plant response rating (scale of 0 to 100), Oilseed Rape [16, 18]: 30
- Plant response rating, Oilseed Rape ([16]; 62 g ai/ha): 50
- Plant response rating, Oilseed Rape ([16]; 125 g ai/ha): 70
- Plant response rating, Oilseed Rape ([16]; 250 g ai/ha): 90
- Plant response rating (scale of 0 to 100), Barnyardgrass ([17]; 31 g ai/ha): 0
- Plant response rating (scale of 0 to 100), Barnyardgrass ([17]; 62 g ai/ha): 0
- Plant response rating (scale of 0 to 100), Barnyardgrass ([17]; 125 g ai/ha): 0
- Plant response rating (scale of 0 to 100), Barnyardgrass ([17]; 250 g ai/ha): 55

SMILES: C=C(C)c1cccc([C@H]2CN(C)C(=O)[C@@H]2C(=O)Nc2cccc(F)c2F)c1 [Compound 1085]
- melting point: 113 to 117 °C

Other lines, results leading:

- melting point: 187 to 191 °C
SMILES: COc1ccc([C@H]2CNC(=O)[C@@H]2C(=O)Nc2cccc(F)c2F)cc1 [Compound 1341]

- melting point: 126 to 130 °C
SMILES: C=C(C)c1ccc([C@H]2CN(C)C(=O)[C@@H]2C(=O)Nc2cccc(F)c2F)cc1 [Compound 1149]

- melting point: 123 to 127 °C
SMILES: O=C1NC[C@H](c2ccc(F)c(Oc3ccccc3)c2)[C@H]1C(=O)Nc1cccc(F)c1F [Compound 1258]

- melting point: 130 to 134 °C
SMILES: COc1ccc([C@H]2CN(C)C(=O)[C@@H]2C(=O)Nc2cccc(F)c2F)cc1 [Compound 1343]

- melting point: 81 to 85 °C
SMILES: O=C1NC[C@H](c2cc(Br)cc(Br)c2)[C@H]1C(=O)Nc1cccc(F)c1F [Compound 1366]
